Measurements taken from paper PMC3440242 (Peptides, 2012).
Like-named read-outs stand apart in the source and are kept apart here.

Assays:
[1] = test system: hY2-CHO receptor; experiment: Depletion of hY2-CHO surface receptors by agonists; format: cell-based, human; settings: exponential + linear model, four experiments
[2] = target: hY2-CHO receptor; settings: read-out: Scatchard affinity / Kdiss, ref [37]; cited from earlier work
[3] = target: T1, Y2 receptor (Homo sapiens, UniProt P49146); settings: read-out: ic50, [^125I] hPYY(3-36) binding to particulate Y2 receptor; cited from earlier work
T1 sequence (P49146 1-381): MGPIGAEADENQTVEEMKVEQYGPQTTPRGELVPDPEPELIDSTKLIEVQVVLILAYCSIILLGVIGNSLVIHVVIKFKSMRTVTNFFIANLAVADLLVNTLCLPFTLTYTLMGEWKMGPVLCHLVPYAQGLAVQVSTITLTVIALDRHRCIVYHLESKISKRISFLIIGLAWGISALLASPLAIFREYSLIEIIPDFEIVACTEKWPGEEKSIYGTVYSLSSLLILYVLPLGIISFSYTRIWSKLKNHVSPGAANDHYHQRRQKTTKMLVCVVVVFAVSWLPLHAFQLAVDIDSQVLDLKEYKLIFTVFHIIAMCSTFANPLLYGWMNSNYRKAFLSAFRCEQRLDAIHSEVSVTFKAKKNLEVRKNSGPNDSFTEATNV

[4] = test system: guinea pig Y2 receptor; experiment: Unmasking of surface guinea pig Y2 receptor in adherent CHO cells; format: cell-based; settings: 30 μM agent, 20 min at 37 °C, 50 pM [^125I] hPYY(3-36), at least three experiments
[5] = test system: Y1 receptor; experiment: Agonist binding to surface Y1 receptor in CHO monolayers after unmasking agent; format: cell-based; settings: 30 μM digitonin pretreatment, 20 min at 37 °C; 50 pM [^125I] hNPY
[6] = test system: Y4 receptor; experiment: Agonist binding to surface Y4 receptor in CHO monolayers after unmasking agent; format: cell-based; settings: 30 μM digitonin pretreatment, 20 min at 37 °C; 50 pM [^125I] hPP
[7] = test system: G-protein nucleotide sites (Gi3 α subunit); format: cell-based
[8] = test system: CHO cells
[9] = stated without reference; cited from earlier work
[10] = test system: CHO cells; experiment: Permeabilization of CHO cells; settings: 20 min at 37 °C
[11] = test system: CHO cells; remark: listed apart in the source
[12] = target: G-protein nucleotide sites (Gi α subunits) (Cricetulus griseus, UniProt Q60397); experiment: ^35S-GTPγS binding to Y2-CHO particulates; settings: Y2-CHO cells
G-protein nucleotide sites (Gi α subunits), sequence (Q60397 2-354): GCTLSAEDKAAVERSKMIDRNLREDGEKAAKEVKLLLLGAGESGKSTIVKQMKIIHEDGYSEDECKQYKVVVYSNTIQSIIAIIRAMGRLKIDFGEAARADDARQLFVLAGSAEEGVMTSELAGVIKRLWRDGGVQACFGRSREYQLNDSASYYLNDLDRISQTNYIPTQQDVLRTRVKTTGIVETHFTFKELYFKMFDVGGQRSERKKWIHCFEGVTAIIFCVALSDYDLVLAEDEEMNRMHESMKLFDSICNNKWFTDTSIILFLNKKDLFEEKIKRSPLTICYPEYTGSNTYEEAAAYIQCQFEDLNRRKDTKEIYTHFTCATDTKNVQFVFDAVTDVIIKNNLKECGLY

[13] = target: T1, Y2 receptor; experiment: Particulate Y2 agonist binding
[14] = test system: CHO cells; experiment: Cell detachment, protein loss and lysis of CHO cells

LRHYLNLLTRORY [AcLeu, human neuropeptide Y(24-36), acetyl-Leu(28, 31)]
% total depletion in component 1 ([1]; + 30 μM PAO): 15.6 ± 3.9% | K1 (exponential component) ([1]; + 30 μM PAO): 3.0 ± 0.75 nM | K2 (linear component) ([1]; + 30 μM PAO): 243 ± 15 nM | % total depletion in component 1 ([1]; without PAO): 32.8 ± 8.5 % | K1 (exponential component) ([1]; without PAO): 6.2 ± 1.6 nM | K2 (linear component) ([1]; without PAO): 153 ± 17 nM | Kd [2]: 0.0005 µM

C[N+](C)(C)CCSS(C)(=O)=O [MTSET, 2-[trimethylammonium)ethyl] methanethiosulfonate]
IC50 [3]: 264 ± 27 µM

C[C@@H]1CC[C@@]2(OC1)O[C@H]1[C@@H](O)[C@H]3[C@@H]4CC[C@H]5C[C@@H](O[C@@H]6O[C@H](CO)[C@H](O[C@@H]7O[C@H](CO)[C@@H](O)[C@H](O[C@@H]8OC[C@@H](O)[C@H](O)[C@H]8O)[C@H]7O[C@@H]7O[C@H](CO)[C@H](O)[C@H](O[C@@H]8O[C@H](CO)[C@@H](O)[C@H](O)[C@H]8O)[C@H]7O)[C@H](O)[C@H]6O)[C@H](O)C[C@]5(C)[C@H]4CC[C@]3(C)[C@H]1[C@@H]2C [digitonin]
increase of labeling of adherent confluent Y2-CHO cells [4]: about 4 fold | effect on Y1-CHO surface sites [5]: did not increase the Y1-CHO or Y4-CHO surface sites | effect on Y4-CHO surface sites [6]: did not increase the Y1-CHO or Y4-CHO surface sites | digitonin range in which ^35S-GTPγS binding saturates [7]: 3 to 30 µM | increase of ^35S-GTPγS binding to intact CHO cells [7]: 10-15 fold | concentration above which CHO cells and particulates are lysed [8]: above 1 mM | concentration above which protein leakage is observed [8]: above 30 μM | concentration at/above which cell detachment is found [8]: about 50 μM | critical micellar concentration [9]: ≥ 100 µM | concentration at which permeabilization reached a plateau ([10]; judged by labeling by ^35S-GTPγS): 20 µM

pertussis toxin: toxin used at 1 ng/ml for 21 h
^35S-GTPγS binding to Y2-CHO cells (in words) [7]: highly sensitive to cell pretreatment with pertussis toxin

C[C@H](CCC(=O)O)[C@H]1CC[C@H]2[C@@H]3[C@H](O)C[C@@H]4C[C@H](O)CC[C@]4(C)[C@H]3C[C@H](O)[C@]12C [cholate]
permeabilization of CHO cells (in words) [11]: did not permeabilize CHO cells at 100 μM | concentration above which CHO cells and particulates are lysed [8]: above 1 mM

Nc1nc2c(ncn2[C@@H]2O[C@H](COP(=O)(O)OP(=O)(O)OP(O)(O)=S)[C@@H](O)[C@H]2O)c(=O)[nH]1 [^35S-GTPγS, guanosine 5′-O-(3-thiotriphosphate]
total particulate nucleotide sites [12]: 32 ± 0.7 fmol/100,000 cells

CCCCC[C@@H](O)[C@H]1C(=O)O[C@H](C)[C@@H](O)/C=C/C=C/C=C/C=C/C=C(\C)[C@@H](O)C[C@H](O)C[C@H](O)C[C@H](O)C[C@H](O)C[C@H](O)C[C@@H]1O [filipin III]
^35S-GTPγS binding to Y2-CHO cells (in words) [7]: highly variable | effect on particulate Y2 agonist binding (in words) [13]: no loss of either particulate or surface Y2 sites | IC50 ([13]; read-out: ic50, agonist binding to Y2-CHO particulates): ~100 µM | concentration at which cell lysis starts [8]: about 10 μM | concentration at/above which cell detachment is found [8]: above 15 μM | loss of mainly cytosolic protein [8]: about 40% | concentration range inducing permeabilization ([10]; filipin III): 0.6 to 3 µM

C[C@H](CCC(=O)NCCC[N+](C)(C)CCCS(=O)(=O)[O-])[C@H]1CC[C@H]2[C@@H]3[C@H](O)C[C@@H]4C[C@H](O)CC[C@]4(C)[C@H]3C[C@H](O)[C@]12C [CHAPS, 3-[(3-Cholamidopropyl)dimethylammonio]-1-propanesulfonate]
concentration above which CHO cells and particulates are lysed [14]: above 1 mM

CCN1C(=O)C=CC1=O [NEM, N-Ethylmaleimide]
IC50 [3]: 146 ± 14 µM

polyoxyethylene(20)sorbitan monooleate [Tween 80]
permeabilization of CHO cells (in words) [11]: did not permeabilize CHO cells at 100 μM
